# In patent US20050064521A1, “In vitro assay for evaluation of angiogenic effects” (TUNGHAI UNIVERSITY, priority 2003, published 2005):
# Experiments:
# [1] = tested on: endothelial cells; experiment: Tube formation of endothelial cells in three-dimensional collagen fiber gel model, inverted microscopy; format: cell-based, Sprague-Dawley (SD) rats; details: cultured for 48 hours
# Method: (§1) Three-dimensional collagen fiber gel: The dry collagen fiber was extract from tails of Sprague-Dawley (SD) rats. The fiber was dissolved in 1 N acetic acid solution in the concentration of 1 g fiber/100 mL acetic acid. The dissolving was performed at 4° C. for 48 hours and followed by dialysis three times with 0.25 N acetic acid solution for 24 hours.
# (§2) Endothelial cells: SD rats weighting 100 to 200 g were anaesthetized with 0.1 mL/100 g body weight of barbiturate (Nembutal™, Abbott® Laboratories, USA) intraperitoneally. The thoracic aortas were cut and the connective tissues were removed. The vessels were further split into vessel rings thickening about 2 mm, and then cultured the rings in fresh Dulbecco's modified Eagle medium (DMEM) with 10% fetal bovine serum. The culture was maintained at 37° C. with 5% CO2 with changing the medium every two days. After cultured for 5 to 6 days, the cells were harvested. The endothelial cells suitable for the method according to the invention were the second to tenth passage cells.
# Model: The endothelial cells (3×10^6) were mixed in the three-dimensional collagen fiber gel and cultured in DMEM containing 5% fetal bovine serum and 10 ng/mL VEGF and 3.08 ng/mL TPA at 37° C. After culturing the endothelial cells for 0, 6, 12, 24, 48, and 72 hours, the morphologies of the cell and gel were both observed with an inverted microscope. […]
# [2] = tested on: endothelial cells; experiment: Collapse of the three-dimensional collagen fiber gel, trypan blue absorbance measurement; format: cell-based, Sprague-Dawley (SD) rats
# Method: as §1
# as §2, with “cells. […]” for “cells.”
# After culturing for 48 hours, the medium was removed and 0.075% trypan blue was added for staining the gels for 30 minutes. The upper solution was then removed and the absorbance of the solution was determined with a spectroscope. […]
# It was evidenced that the degree of collapse of the three-dimensional collagen fiber gel is decreased with the addition of EGCg. That results support that the effect of a compound on angiogenesis can be determined by comparing the degrees of collapse of the collagen fiber gels of the models. For instance, the compound is determined to have a stimulatory effect on angiogenesis in case the collapse of the collagen fiber gel of the model added with the compound is increased in comparison with that added without the compound; in contrast, the compound is determined to have an inhibitory effect on angiogenesis in case the collapse of the collagen fiber gel of the model added with the compound is decreased in comparison with that added without the compound.
structure (smiles),measurement,setting,value
"O=C(O[C@@H]1Cc2c(O)cc(O)cc2O[C@@H]1c1cc(O)c(O)c(O)c1)c1cc(O)c(O)c(O)c1 [EGCg, epigallocatechin gallate]",tubes and cell count versus control without EGCg,[1]; 25 μM EGCg,less tubes and lower cell count
same,tubes,[1]; 100 μM EGCg,almost no tubes
same,inhibitory effect on angiogenesis (absorbance measurement),[2]; 25 μM EGCg,a little inhibitory effect on angiogenesis
same,collapse of the gel (absorbance measurement),[2]; 50 μM EGCg,nearly totally inhibited
same,collapse of the gel (absorbance measurement),[2]; 100 μM EGCg,nearly no collapse was observed
